Assay: pH of aqueous solution after adding 30 g powder to 100 g water
Assay type: physicochemical
Conditions: powder dissolved in distilled water, result in words
Experimental: After the addition of the alkaline oxides or hydroxides, the aqueous solutions were measured for pH and the results are given in Table 1.

| influence on the pH of the distilled water | Structure (SMILES) |
| --- | --- |
| no influence on the pH | [O]=[Al][O][Al]=[O] [Material No. C. 2, Al2O3] |
| no influence on the pH | [O]=[Ti]=[O] [Material No. C. 1, TiO2] |
| no influence on the pH | O=[Si]=O [Material No. C. 3, SiO2] |

— patent US6773803B2, “Far-infrared emission powder with antibacterial activity and bio-wave steel plate coated with resin containing same” (Posco, priority 2000, dated 2004)
